{"source": "ChEMBL document CHEMBL1146356", "about": "“Lactotriaose-containing carbosilane dendrimers: syntheses and lectin-binding activities” (Bioorg Med Chem, 2007)", "key": {"[1]": {"system": "Triticum aestivum", "assay": "Binding affinity to wheat germ agglutinin"}, "[2]": {"system": "Triticum aestivum", "assay": "Binding affinity to wheat germ agglutinin relative to Monovalent"}}, "data": [{"smiles": "CC(=O)N[C@H]1[C@H](O[C@H]2[C@@H](O)[C@@H](CO)O[C@@H](O[C@@H]3[C@@H](O)[C@H](O)C(O)O[C@H]3CO)[C@@H]2O)O[C@H](CO)[C@@H](O)[C@@H]1O", "note": "(stereo not given in full)", "values": [{"measurement": "Ka", "setting": "[1]", "result": "1.1 10^3/M"}]}, {"smiles": "CC(=O)N[C@H]1[C@H](O[C@H]2[C@@H](O)[C@@H](CO)O[C@@H](O[C@@H]3[C@@H](O)[C@H](O)C(OCCCCCSCCC[Si](CCCSCCCCCOC4O[C@@H](CO)[C@H](O[C@@H]5O[C@H](CO)[C@H](O)[C@H](O[C@@H]6O[C@H](CO)[C@@H](O)[C@H](O)[C@H]6NC(C)=O)[C@H]5O)[C@@H](O)[C@@H]4O)(CCCSCCCCCOC4O[C@@H](CO)[C@H](O[C@@H]5O[C@H](CO)[C@H](O)[C@H](O[C@@H]6O[C@H](CO)[C@@H](O)[C@H](O)[C@H]6NC(C)=O)[C@H]5O)[C@@H](O)[C@@H]4O)CCC[Si](C)(C)CCC[Si](CCCSCCCCCOC4O[C@@H](CO)[C@H](O[C@@H]5O[C@H](CO)[C@H](O)[C@H](O[C@@H]6O[C@H](CO)[C@@H](O)[C@H](O)[C@H]6NC(C)=O)[C@H]5O)[C@@H](O)[C@@H]4O)(CCCSCCCCCOC4O[C@@H](CO)[C@H](O[C@@H]5O[C@H](CO)[C@H](O)[C@H](O[C@@H]6O[C@H](CO)[C@@H](O)[C@H](O)[C@H]6NC(C)=O)[C@H]5O)[C@@H](O)[C@@H]4O)CCCSCCCCCOC4O[C@@H](CO)[C@H](O[C@@H]5O[C@H](CO)[C@H](O)[C@H](O[C@@H]6O[C@H](CO)[C@@H](O)[C@H](O)[C@H]6NC(C)=O)[C@H]5O)[C@@H](O)[C@@H]4O)O[C@H]3CO)[C@@H]2O)O[C@H](CO)[C@@H](O)[C@@H]1O", "note": "(stereo not given in full)", "values": [{"measurement": "Ka", "setting": "[1]", "result": "2.8 10^6/M"}, {"measurement": "Activity", "setting": "[2]", "result": 2500}]}, {"smiles": "CC(=O)N[C@H]1[C@H](O[C@H]2[C@@H](O)[C@@H](CO)O[C@@H](O[C@@H]3[C@@H](O)[C@H](O)C(OCCCCCSCCC[Si](CCCSCCCCCOC4O[C@@H](CO)[C@H](O[C@@H]5O[C@H](CO)[C@H](O)[C@H](O[C@@H]6O[C@H](CO)[C@@H](O)[C@H](O)[C@H]6NC(C)=O)[C@H]5O)[C@@H](O)[C@@H]4O)(CCCSCCCCCOC4O[C@@H](CO)[C@H](O[C@@H]5O[C@H](CO)[C@H](O)[C@H](O[C@@H]6O[C@H](CO)[C@@H](O)[C@H](O)[C@H]6NC(C)=O)[C@H]5O)[C@@H](O)[C@@H]4O)CCC[Si](CCCSCCCCCOC4O[C@@H](CO)[C@H](O[C@@H]5O[C@H](CO)[C@H](O)[C@H](O[C@@H]6O[C@H](CO)[C@@H](O)[C@H](O)[C@H]6NC(C)=O)[C@H]5O)[C@@H](O)[C@@H]4O)(CCCSCCCCCOC4O[C@@H](CO)[C@H](O[C@@H]5O[C@H](CO)[C@H](O)[C@H](O[C@@H]6O[C@H](CO)[C@@H](O)[C@H](O)[C@H]6NC(C)=O)[C@H]5O)[C@@H](O)[C@@H]4O)CCC[Si](CCSCCCCCOC4O[C@@H](CO)[C@H](O[C@@H]5O[C@H](CO)[C@H](O)[C@H](O[C@@H]6O[C@H](CO)[C@@H](O)[C@H](O)[C@H]6NC(C)=O)[C@H]5O)[C@@H](O)[C@@H]4O)(CCSCCCCCOC4O[C@@H](CO)[C@H](O[C@@H]5O[C@H](CO)[C@H](O)[C@H](O[C@@H]6O[C@H](CO)[C@@H](O)[C@H](O)[C@H]6NC(C)=O)[C@H]5O)[C@@H](O)[C@@H]4O)CCSCCCCCOC4O[C@@H](CO)[C@H](O[C@@H]5O[C@H](CO)[C@H](O)[C@H](O[C@@H]6O[C@H](CO)[C@@H](O)[C@H](O)[C@H]6NC(C)=O)[C@H]5O)[C@@H](O)[C@@H]4O)O[C@H]3CO)[C@@H]2O)O[C@H](CO)[C@@H](O)[C@@H]1O", "note": "(stereo not given in full)", "values": [{"measurement": "Ka", "setting": "[1]", "result": "1.3 10^6/M"}, {"measurement": "Activity", "setting": "[2]", "result": 1200}]}]}
